Experimental data from PMC10320503, “Rapid-reaction kinetics of the butyryl-CoA dehydrogenase component of the electron-bifurcating crotonyl-CoA-dependent NADH:ferredoxin oxidoreductase from Megasphaera elsdenii” (The Journal of Biological Chemistry, 2023).
Each block holds one molecule with its values, some of them ahead of it.

Columns and labels:
[1] = biological target: T1, bcd (butyryl-CoA dehydrogenase) (Megasphaera elsdenii, UniProt Q06319); assay: UV-visible titration and EPR of the bound flavin; format: binding; conditions: dithionite titrations at pH 6.0, 7.5 and 9.0, 25 °C; EPR at 77 K
T1 construct: isolated bcd component without EtfAB, C-terminal Strep II tag (pASG-IBA3), expressed in E. coli BL21; FAD-loaded, CoA persulfide removed by dithionite
T1 sequence (Q06319 1-383): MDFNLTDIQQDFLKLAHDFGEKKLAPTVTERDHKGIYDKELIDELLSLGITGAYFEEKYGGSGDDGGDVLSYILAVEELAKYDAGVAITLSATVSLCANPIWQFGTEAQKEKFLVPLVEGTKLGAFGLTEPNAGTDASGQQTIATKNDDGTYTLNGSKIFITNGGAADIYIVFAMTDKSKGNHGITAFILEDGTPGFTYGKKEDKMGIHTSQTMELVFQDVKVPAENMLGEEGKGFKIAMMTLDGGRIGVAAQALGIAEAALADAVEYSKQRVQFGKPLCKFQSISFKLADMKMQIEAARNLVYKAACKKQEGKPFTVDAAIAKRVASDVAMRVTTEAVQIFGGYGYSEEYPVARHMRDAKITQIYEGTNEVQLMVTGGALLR

[2] = biological target: T1, bcd (butyryl-CoA dehydrogenase); assay: stopped-flow reduction of bcd FAD at […] nm, hyperbolic fit of kobs versus [butyryl-CoA]; format: biochemical; conditions: oxidized bcd 10 μM, 50 mM Tris-HCl, 150 mM NaCl, pH 7.5, 10 °C, anaerobic; reverse of the physiological direction; read-out: Kd (apparent)
[3] = biological target: T1, bcd (butyryl-CoA dehydrogenase); assay: stopped-flow reoxidation of reduced bcd; charge-transfer complex absorbance; format: biochemical; conditions: dithionite-reduced bcd, 50 mM Tris-HCl, 150 mM NaCl, pH 7.5, 10 °C, anaerobic
[4] = biological target: T2, EtfAB, the electron-transferring flavoprotein component of the crotonyl-CoA-dependent NADH:ferredoxin … (Megasphaera elsdenii, UniProt O85692 1-338; O85691 1-270); assay: stopped-flow spectrophotometry (rate of electron transfer against protein concentration); prereduced EtfAB mixed with oxidized bcd, anaerobic, monitored at 450 nm; 1:1 ratio at 2 to 70 uM, or 3 uM EtfAB with 3 to 24 uM bcd; 50 mM Tris-HCl, 150 mM NaCl, pH 7.5, 25 C; Kd limit inferred from the rate constant being independent of concentration; conditions: both partners purified
T2 construct: Electron-transferring flavoprotein alpha subunit (EtfA), Megasphaera elsdenii; Electron-transferring flavoprotein beta subunit (EtfB), Megasphaera elsdenii; prereduced with sodium dithionite before the assay; Plasmid derived from pASG-IBA3; also called prereduced EtfAB; source: E. coli BL21, purified (Strep-Tactin XT Superflow)
T2 sequence (looked up) 1: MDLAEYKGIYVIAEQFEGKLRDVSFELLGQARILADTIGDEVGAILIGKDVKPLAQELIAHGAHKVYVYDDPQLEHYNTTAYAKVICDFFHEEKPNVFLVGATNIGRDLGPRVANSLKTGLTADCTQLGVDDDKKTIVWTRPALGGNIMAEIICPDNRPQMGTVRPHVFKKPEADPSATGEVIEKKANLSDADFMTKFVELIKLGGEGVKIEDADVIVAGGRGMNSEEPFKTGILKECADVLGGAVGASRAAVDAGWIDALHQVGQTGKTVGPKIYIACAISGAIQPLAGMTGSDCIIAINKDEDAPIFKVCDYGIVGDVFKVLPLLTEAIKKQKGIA
T2 sequence (looked up) 2: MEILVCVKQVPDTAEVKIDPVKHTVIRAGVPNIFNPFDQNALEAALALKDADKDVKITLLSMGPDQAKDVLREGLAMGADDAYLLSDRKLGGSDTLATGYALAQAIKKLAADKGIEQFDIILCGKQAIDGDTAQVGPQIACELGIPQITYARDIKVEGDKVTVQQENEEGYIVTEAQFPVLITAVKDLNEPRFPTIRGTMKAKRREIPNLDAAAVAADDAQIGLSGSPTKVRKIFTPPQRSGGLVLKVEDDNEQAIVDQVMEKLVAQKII

Molecule: Cc1cc2nc3c(=O)[nH]c(=O)nc-3n(C[C@H](O)[C@H](O)[C@H](O)COP(=O)(O)OP(=O)(O)OC[C@H]3O[C@@H](n4cnc5c(N)ncnc54)[C@H](O)[C@@H]3O)c2cc1C [FAD]
UV-visible titration and EPR of the bound flavin [1]: the one-electron reduced FAD neutral semiquinone (FADH•) accumulates transiently

Molecule: C/C=C/C(=O)SCCNC(=O)CCNC(=O)[C@H](O)C(C)(C)COP(=O)(O)OP(=O)(O)OC[C@H]1O[C@@H](n2cnc3c(N)ncnc32)[C@H](O)[C@@H]1OP(=O)(O)O [crotonyl-CoA]
stopped-flow reoxidation of reduced bcd; charge-transfer complex absorbance [3]: indicating extremely rapid and tight binding of crotonyl-CoA to bcd

Results, then the molecule that gave them:

Kd [2]: 60 µM
Molecule: CCCC(=O)SCCNC(=O)CCNC(=O)[C@H](O)C(C)(C)COP(=O)(O)OP(=O)(O)OC[C@H]1O[C@@H](n2cnc3c(N)ncnc32)[C@H](O)[C@@H]1OP(=O)(O)O [butyryl-CoA]

Kd [4]: < 2 µM
B1: butyryl-CoA dehydrogenase (bcd) component of EtfAB-bcd from Megasphaera elsdenii (enzyme)
chain: T1 sequence (Q06319 1-383)
notes: Butyryl-CoA dehydrogenase, Megasphaera elsdenii, locus tag Mels_2128; oxidized form in the assay; Plasmid derived from pASG-IBA3; also called oxidized bcd; source: E. coli BL21, purified (Strep-Tactin XT Superflow)
